Test results as given in US11986452B2, “Methods of reducing the risk of heart failure” (Amarin Pharmaceuticals Ireland Limited, priority 2021, dated 2024).

Test system: TG, non-HDL-C, LDL-C, HDL-C, Apo B, hsCRP
Assay: REDUCE-IT fasting lipid profile and biomarker assays over time
Assay type: in vivo, human
Settings: for Apo B between group difference vs placebo, median % change from baseline / Apo B between group difference vs placebo, median absolute change from baseline / HDL-C between group difference vs placebo, median % change from baseline / HDL-C between group difference vs placebo, median absolute change from baseline / LDL-C Hopkins between group difference vs placebo, median % change from baseline / LDL-C Hopkins between group difference vs placebo, median absolute change from baseline / LDL-C derived between group difference vs placebo, median % change from baseline / LDL-C derived between group difference vs placebo, median absolute change from baseline / Log hsCRP between group difference vs placebo, median absolute change from baseline / Non-HDL-C between group difference vs placebo, median % change from baseline / Non-HDL-C between group difference vs placebo, median absolute change from baseline / Triglycerides between group difference vs placebo, median absolute change from baseline / hsCRP between group difference vs placebo, median absolute change from baseline: ITT
Protocol: Fasting Lipid Profile: The fasting lipid panel included: TG, TC, LDL-C, HDL-C, non-HDL-C, and VLDL-C. At all visits, LDL-C was calculated using the Friedewald equation. At Visit 1 and Visit 1.1 direct LDL-C were used if at the same visit TG>400 mg/dL (4.52 mmol/L). These LDL-C values were used for the evaluation of the LDL-C inclusion criterion (LDL-C qualifying measurements for randomization) and for the assessment of changes in the statin therapy when LDL-C was not at goal. […] In addition, irrespective of the TG levels, at Visit 2 (0 Months of Follow-up, baseline) and at Visit 4 (12 Months of Follow-up), LDL-C were measured by preparative ultracentrifugation. These preparative ultracentrifugation LDL-C measurements were used in the statistical analysis including the calculation of the percent change from baseline (1 year versus baseline). Hopkins LDL-C was calculated for each visit.
Biomarkers Assays: The biomarker assays included: hsCRP, Apo B and hsTnT.
The fasting lipid panel was tested at Screening (Visit 1 or Visit 1.1), Randomization visit (Visit 2; Day 0), Visit 3 (Day 120; ˜4 Months) and all other follow-up visits including the last visit. For change from baseline to 1 year preparative ultracentrifugation measurements for LDL-C were analyzed, unless this value was missing. If the LDL-C preparative ultracentrifugation values were missing, then another LDL-C value was used, with prioritization of values obtained from LDL-C Direct measurements, followed by LDL-C derived by the Friedewald calculation (only for subjects with TG<400 mg/dL), and finally LDL-C derived using the calculation published by Hopkins University investigators (Martin S S, Blaha M J, Elshazly M B, et al. Comparison of a novel method vs the Friedewald equation for estimating low-density lipoprotein cholesterol levels from the standard lipid profile. JAMA. 2013; 310:2061-8.). In addition, change from baseline to day 120 in LDL-C utilizing Friedewald's and Hopkins methods was analyzed, using the arithmetic mean of LDL-C obtained at Visit 2 (Day 0) and the preceding Visit 1 (or Visit 1.1). If one of these values was missing, the single available LDL-C value was used. LDL-C according to Hopkins was calculated at each visit.
The randomization visit was considered Baseline. If a baseline value was not available from the randomization visit, then the latest screening value was used. For measurements of lipids, lipoproteins and inflammatory markers, the change and the percent change were summarized at each visit. Since these biomarkers are typically not normally distributed, the Wilcoxon rank-sum test was used for treatment comparisons of the percent change from baseline, and medians and quartiles were provided for each treatment group. The medians of the differences between the treatment groups and 95% CIs were estimated with the Hodges-Lehmann method. In addition, shift-tables were generated as appropriate.

Structure (SMILES): CC/C=C\C/C=C\C/C=C\C/C=C\C/C=C\CCCC(=O)OCC [icosapent ethyl, eicosapentaenoic acid ethyl ester]
- Apo B between group difference vs placebo, median % change from baseline (Last Visit): −6.7%
- Apo B between group difference vs placebo, median absolute change from baseline (Last Visit): -5.0 mg/dL
- HDL-C between group difference vs placebo, median % change from baseline (Last Visit): −3.0%
- HDL-C between group difference vs placebo, median absolute change from baseline (Last Visit): -1.0 mg/dL
- LDL-C Hopkins between group difference vs placebo, median % change from baseline (Last Visit): −7.4%
- LDL-C Hopkins between group difference vs placebo, median absolute change from baseline (Last Visit): -6.2 mg/dL
- LDL-C derived between group difference vs placebo, median % change from baseline (Last Visit): −6.6%
- LDL-C derived between group difference vs placebo, median absolute change from baseline (Last Visit): -5.0 mg/dL
- Log hsCRP between group difference vs placebo, median absolute change from baseline (Last Visit): −0.4 mg/L
- Non-HDL-C between group difference vs placebo, median % change from baseline (Last Visit): −8.6%
- Non-HDL-C between group difference vs placebo, median absolute change from baseline (Last Visit): -10.0 mg/dL
- Triglycerides between group difference vs placebo, median absolute change from baseline (Last Visit): -32.0 mg/dL
- hsCRP between group difference vs placebo, median absolute change from baseline (Last Visit): -0.8 mg/L
- HDL-C between group difference vs placebo, median % change from baseline (Month 4): −7.2%
- HDL-C between group difference vs placebo, median absolute change from baseline (Month 4): -3.0 mg/dL
- LDL-C Hopkins between group difference vs placebo, median absolute change from baseline (Month 4): -8.7 mg/dL
- Apo B median value (Year 1 (Table 18)): 80.0 mg/dL
- hsCRP median value (Year 1 (Table 18)): 1.8 mg/L
- HDL-C between group difference vs placebo, median % change from baseline (Year 1): −6.3%
- HDL-C between group difference vs placebo, median absolute change from baseline (Year 1): -2.5 mg/dL
- LDL-C Hopkins between group difference vs placebo, median absolute change from baseline (Year 1): -9.6 mg/dL
- LDL-C derived between group difference vs placebo, median % change from baseline (Year 1): −6.6%
- LDL-C derived between group difference vs placebo, median absolute change from baseline (Year 1): -5.0 mg/dL
- Apo B between group difference vs placebo, median % change from baseline (Year 2): −9.7%
- Apo B between group difference vs placebo, median absolute change from baseline (Year 2): -8.0 mg/dL
- HDL-C between group difference vs placebo, median % change from baseline (Year 2): −4.6%
- HDL-C between group difference vs placebo, median absolute change from baseline (Year 2): -2.0 mg/dL
- LDL-C Hopkins between group difference vs placebo, median absolute change from baseline (Year 2): -9.4 mg/dL
- Log hsCRP between group difference vs placebo, median absolute change from baseline (Year 2): −0.4 mg/L
- hsCRP between group difference vs placebo, median absolute change from baseline (Year 2): -0.9 mg/L
- HDL-C between group difference vs placebo, median % change from baseline (Year 3): −3.8%
- HDL-C between group difference vs placebo, median absolute change from baseline (Year 3): -1.5 mg/dL
- LDL-C Hopkins between group difference vs placebo, median absolute change from baseline (Year 3): -8.7 mg/dL
- HDL-C between group difference vs placebo, median % change from baseline (Year 4): −3.9%
- HDL-C between group difference vs placebo, median absolute change from baseline (Year 4): -1.5 mg/dL
- LDL-C Hopkins between group difference vs placebo, median absolute change from baseline (Year 4): -8.9 mg/dL
- Non-HDL-C between group difference vs placebo, median % change from baseline (Year 4): −12.0%
- Non-HDL-C between group difference vs placebo, median absolute change from baseline (Year 4): -14.0 mg/dL
- Triglycerides between group difference vs placebo, median absolute change from baseline (Year 4): -38.0 mg/dL
- HDL-C between group difference vs placebo, median % change from baseline (Year 5): −3.0%
- HDL-C between group difference vs placebo, median absolute change from baseline (Year 5): -1.5 mg/dL
- LDL-C Hopkins between group difference vs placebo, median % change from baseline (Year 5): −8.0%
- LDL-C Hopkins between group difference vs placebo, median absolute change from baseline (Year 5): -6.6 mg/dL
- Non-HDL-C between group difference vs placebo, median % change from baseline (Year 5): −9.9%
- Non-HDL-C between group difference vs placebo, median absolute change from baseline (Year 5): -11.0 mg/dL
- Triglycerides: median reduction from baseline greater than in placebo group (Hodges-Lehmann) (baseline to one year): 19.7%
